Laboratory results taken from patent publication US8883782B2, “Spiro-tetracyclic ring compounds as beta-secretase modulators and methods of use” (Amgen Inc., priority 2010, dated 2014).

Key:
[1] = target: Beta Secretase enzyme (BACE) (Homo sapiens, UniProt P56817); assay: In vitro enzymatic BACE FRET (fluorescence resonance energy transfer) assay; type: biochemical; settings: average IC50, enzyme assay; read-out: BACE 1 FRET assay
In short: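 A peptide bearing a fluorophore and quencher across the cleavage site serves as substrate at 50 nM. Reactions proceed one hour in acidic acetate buffer (0.05 M, pH 4.2) containing 10% DMSO final and 100 uM genapol, then are terminated with Tris and read fluorimetrically.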

[2] = test system: Aβ40 in conditioned medium of cells stably expressing Amyloid Precursor Protein (APP); assay: In vitro BACE cell-based assay (Aβ40 in conditioned medium, sandwich ELISA); settings: Homo sapiens, HEK293, average IC50, HEK cells; read-out: HEK cell assay
In short: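 The sandwich ELISA pairs pAb40 capture (3 h, 4 °C) with 6E10 detection (2 h, 4 °C) and a streptavidin-europium TRF read-out. Supernatants come from APP-expressing cells grown in 10% FBS DMEM.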

Sequence of Beta Secretase enzyme (BACE) (P56817 46-501, species assumed): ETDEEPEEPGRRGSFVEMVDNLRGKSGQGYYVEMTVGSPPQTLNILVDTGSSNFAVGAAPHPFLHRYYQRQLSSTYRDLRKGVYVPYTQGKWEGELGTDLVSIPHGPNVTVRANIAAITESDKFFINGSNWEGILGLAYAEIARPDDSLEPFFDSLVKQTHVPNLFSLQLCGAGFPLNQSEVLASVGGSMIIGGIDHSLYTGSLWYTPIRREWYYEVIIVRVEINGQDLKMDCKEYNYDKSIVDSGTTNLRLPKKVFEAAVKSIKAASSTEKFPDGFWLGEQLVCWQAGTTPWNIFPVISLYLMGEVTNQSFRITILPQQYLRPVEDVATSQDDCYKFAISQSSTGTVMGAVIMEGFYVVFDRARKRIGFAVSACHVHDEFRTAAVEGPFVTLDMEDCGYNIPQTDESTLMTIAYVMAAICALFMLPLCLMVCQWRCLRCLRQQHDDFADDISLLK

SMILES | IC50 [1] | IC50 [2]
Cn1cc(-c2cc(F)c3c(c2)[C@]2(COC(N)=N2)c2cc(-c4c(F)ccnc4F)ccc2O3)cn1 [Example 859, (4S)-7′-(2,4-difluoro-3-pyridinyl)-4′-fluoro-2′-(1-methyl-1H-pyrazol-4-yl)spiro[1,3-oxazole-4,9′-xanthen]-2-amine] | 0.5 nM | 11 nM
NC1=N[C@@]2(CO1)c1cc(-c3cccnc3)c(F)cc1Oc1c(F)cc(N3CCOCC3)cc12 [Example 861, (4S)-3′,5′-difluoro-7′-(4-morpholinyl)-2′-(3-pyridinyl)spiro[1,3-oxazole-4,9′-xanthen]-2-amine] | 1 nM | 15 nM
CC(C)(C#N)COc1cc(F)c2c(c1)[C@]1(COC(N)=N1)c1cc(-c3cccnc3F)c(F)cc1O2 [Example 862, 3-(((4S)-2-amino-4′,6′-difluoro-7′-(2-fluoro-3-pyridinyl)spiro[1,3-oxazole-4,9′-xanthen]-2′-yl)oxy)-2,2-dimethylpropanenitrile] | 0.3 nM | 11 nM
CC(C)(C#N)COc1cc(F)c2c(c1)[C@@]1(COC(N)=N1)c1cc(-c3cccnc3F)c(F)cc1O2 [Example 863, 3-(((4R)-2-amino-4′,6′-difluoro-7′-(2-fluoro-3-pyridinyl)spiro[1,3-oxazole-4,9′-xanthen]-2′-yl)oxy)-2,2-dimethylpropanenitrile] | 80.1 nM | 2360 nM
NC1=N[C@@]2(CO1)c1cc(-c3cccnc3)c(F)cc1Oc1c(F)cc(C3CCOCC3)cc12 [Example 864, (4S)-3′,5′-difluoro-2′-(3-pyridinyl)-7′-(tetrahydro-2H-pyran-4-yl)spiro[1,3-oxazole-4,9′-xanthen]-2-amine] | 1.1 nM | 30 nM
NC1=N[C@@]2(CO1)c1cc(-c3cccnc3F)c(F)cc1Oc1c(F)cc(C3=CCCOC3)cc12 [Example 865, (4S)-7′-(5,6-dihydro-2H-pyran-3-yl)-3′,5′-difluoro-2′-(2-fluoro-3-pyridinyl)spiro[1,3-oxazole-4,9′-xanthen]-2-amine] | 0.3 nM | 5 nM
NC1=N[C@]2(CO1)c1cc(-c3cccnc3F)c(F)cc1Oc1c(F)cc(C3=CCCOC3)cc12 [Example 866, (4R)-7′-(5,6-dihydro-2H-pyran-3-yl)-3′,5′-difluoro-2′-(2-fluoro-3-pyridinyl)spiro[1,3-oxazole-4,9′-xanthen]-2-amine] | 62.3 nM | 1720 nM
NC1=N[C@]2(CO1)c1cc(-c3cccnc3F)c(F)cc1Oc1c(F)cc(C3=CCOCC3)cc12 [Example 868, (4R)-7′-(3,6-dihydro-2H-pyran-4-yl)-3′,5′-difluoro-2′-(2-fluoro-3-pyridinyl)spiro[1,3-oxazole-4,9′-xanthen]-2-amine] | 52.1 nM | 1130 nM
NC1=N[C@]2(CO1)c1cc(-c3cccnc3F)c(F)cc1Oc1c(F)cc(N3CCOCC3)cc12 [Example 870, (4R)-3′,5′-difluoro-2′-(2-fluoro-3-pyridinyl)-7′-(4-morpholinyl)spiro[1,3-oxazole-4,9′-xanthen]-2-amine] | 157 nM | 6570 nM
NC1=N[C@]2(CO1)c1cc(-c3cccnc3F)c(F)cc1Oc1c(F)cc(C3CCOCC3)cc12 [Example 871, (4R)-3′,5′-difluoro-2′-(2-fluoro-3-pyridinyl)-7′-(tetrahydro-2H-pyran-4-yl)spiro[1,3-oxazole-4,9′-xanthen]-2-amine] | 179 nM | 6470 nM
NC1=N[C@@]2(CO1)c1cc(-c3cccnc3F)c(F)cc1Oc1c(F)cc(C3CCOCC3)cc12 [Example 872, (4S)-3′,5′-difluoro-2′-(2-fluoro-3-pyridinyl)-7′-(tetrahydro-2H-pyran-4-yl)spiro[1,3-oxazole-4,9′-xanthen]-2-amine] | 0.6 nM | 15 nM
NC1=N[C@@]2(CS1)c1cc(-c3cncnc3)c(F)cc1Oc1c(F)cc(C3=CCCOC3)cc12 [Example 873, (4S)-7′-(5,6-dihydro-2H-pyran-3-yl)-3′,5′-difluoro-2′-(5-pyrimidinyl)spiro[1,3-thiazole-4,9′-xanthen]-2-amine] | 0.3 nM | 7 nM
NC1=N[C@]2(CS1)c1cc(-c3cncnc3)c(F)cc1Oc1c(F)cc(C3=CCCOC3)cc12 [Example 874, (4R)-7′-(5,6-dihydro-2H-pyran-3-yl)-3′,5′-difluoro-2′-(5-pyrimidinyl)spiro[1,3-thiazole-4,9′-xanthen]-2-amine] | 32.5 nM | 506 nM
CC1(COc2cc(F)c3c(c2)[C@]2(CSC(N)=N2)c2cc(-c4cncnc4)c(F)cc2O3)COC1 [Example 875, (4S)-3′,5′-difluoro-7′-((3-methyl-3-oxetanyl)methoxy)-2′-(5-pyrimidinyl)spiro[1,3-thiazole-4,9′-xanthen]-2-amine] | 0.5 nM | 8 nM
CC1(COc2cc(F)c3c(c2)[C@@]2(CSC(N)=N2)c2cc(-c4cncnc4)c(F)cc2O3)COC1 [Example 876, (4R)-3′,5′-difluoro-7′-((3-methyl-3-oxetanyl)methoxy)-2′-(5-pyrimidinyl)spiro[1,3-thiazole-4,9′-xanthen]-2-amine] | 44.9 nM | 634 nM
CC1(COc2cc(F)c3c(c2)[C@@]2(CSC(N)=N2)c2cc(-c4cccnc4)c(F)cc2O3)COC1 [Example 877, (4R)-3′,5′-difluoro-7′-((3-methyl-3-oxetanyl)methoxy)-2′-(3-pyridinyl)spiro[1,3-thiazole-4,9′-xanthen]-2-amine] | 183 nM | 3000 nM
CC1(COc2cc(F)c3c(c2)[C@]2(CSC(N)=N2)c2cc(-c4cccnc4)c(F)cc2O3)COC1 [Example 878, (4S)-3′,5′-difluoro-7′-((3-methyl-3-oxetanyl)methoxy)-2′-(3-pyridinyl)spiro[1,3-thiazole-4,9′-xanthen]-2-amine] | 0.4 nM | 8 nM
NC1=N[C@@]2(CS1)c1cc(-c3cccnc3F)c(F)cc1Oc1c(F)cc(N3CCOCC3)cc12 [Example 879, (4S)-3′,5′-difluoro-2′-(2-fluoro-3-pyridinyl)-7′-(4-morpholinyl)spiro[1,3-thiazole-4,9′-xanthen]-2-amine] | 0.3 nM | 11 nM
NC1=N[C@]2(CS1)c1cc(-c3cccnc3F)c(F)cc1Oc1c(F)cc(N3CCOCC3)cc12 [Example 880, (4R)-3′,5′-difluoro-2′-(2-fluoro-3-pyridinyl)-7′-(4-morpholinyl)spiro[1,3-thiazole-4,9′-xanthen]-2-amine] | 1230 nM | ≥ 10000 nM
NC1=N[C@@]2(CS1)c1cc(-c3cccnc3)c(F)cc1Oc1c(F)cc(C3=CCOCC3)cc12 [Example 881, (4S)-7′-(3,6-dihydro-2H-pyran-4-yl)-3′,5′-difluoro-2′-(3-pyridinyl)spiro[1,3-thiazole-4,9′-xanthen]-2-amine] | 0.5 nM | 23 nM

Further lines, results first:

IC50 [1] | IC50 [2] | SMILES
617 nM | ≥ 10000 nM | NC1=N[C@]2(CS1)c1cc(-c3cccnc3)c(F)cc1Oc1c(F)cc(C3=CCOCC3)cc12 [Example 882, (4R)-7′-(3,6-dihydro-2H-pyran-4-yl)-3′,5′-difluoro-2′-(3-pyridinyl)spiro[1,3-thiazole-4,9′-xanthen]-2-amine]
0.3 nM | 50 nM | NC1=N[C@@]2(CS1)c1cc(-c3cccnc3)c(F)cc1Oc1c(F)cc(C3=CCCOC3)cc12 [Example 883, (4S)-7′-(5,6-dihydro-2H-pyran-3-yl)-3′,5′-difluoro-2′-(3-pyridinyl)spiro[1,3-thiazole-4,9′-xanthen]-2-amine]
162 nM | ≥ 10000 nM | NC1=N[C@]2(CS1)c1cc(-c3cccnc3)c(F)cc1Oc1c(F)cc(C3=CCCOC3)cc12 [Example 884, (4R)-7′-(5,6-dihydro-2H-pyran-3-yl)-3′,5′-difluoro-2′-(3-pyridinyl)spiro[1,3-thiazole-4,9′-xanthen]-2-amine]
0.4 nM | 5 nM | CC1(COc2cc(F)c3c(c2)[C@]2(CSC(N)=N2)c2cc(-c4cccnc4F)c(F)cc2O3)COC1 [Example 885, (4S)-3′,5′-difluoro-2′-(2-fluoro-3-pyridinyl)-7′-((3-methyl-3-oxetanyl)methoxy)spiro[1,3-thiazole-4,9′-xanthen]-2-amine]
475 nM | ≥ 10000 nM | CC1(COc2cc(F)c3c(c2)[C@@]2(CSC(N)=N2)c2cc(-c4cccnc4F)c(F)cc2O3)COC1 [Example 886, (4R)-3′,5′-difluoro-2′-(2-fluoro-3-pyridinyl)-7′-((3-methyl-3-oxetanyl)methoxy)spiro[1,3-thiazole-4,9′-xanthen]-2-amine]
4740 nM | ≥ 10000 nM | NC1=N[C@]2(CS1)c1cc(-c3cncnc3)c(F)cc1Oc1c(F)cc(N3CCOCC3)cc12 [Example 887, (4R)-3′,5′-difluoro-7′-(4-morpholinyl)-2′-(5-pyrimidinyl)spiro[1,3-thiazole-4,9′-xanthen]-2-amine]
2.1 nM | 10 nM | NC1=N[C@@]2(CS1)c1cc(-c3cncnc3)c(F)cc1Oc1c(F)cc(N3CCOCC3)cc12 [Example 888, (4S)-3′,5′-difluoro-7′-(4-morpholinyl)-2′-(5-pyrimidinyl)spiro[1,3-thiazole-4,9′-xanthen]-2-amine]
19.9 nM | 540 nM | CN(C)c1cc2c(cn1)Oc1ccc(-c3cccnc3)cc1C21CSC(N)=N1 [Example 889, (5R)-N~3~,N~3~-dimethyl-7-(3-pyridinyl)spiro[chromeno[2,3-c]pyridine-5,4′-[1,3]thiazole]-2′,3-diamine, (5S)-N~3~,N~3~-dimethyl-7-(3-pyridinyl)spiro[chromeno[2,3-c]pyridine-5,4′-[1,3]thiazole]-2′,3-diamine]
1.9 nM | 61 nM | NC1=N[C@@]2(CO1)c1cc(-c3cccnc3F)ccc1Oc1cnc(N3C[C@@H]4C[C@H]3CO4)cc12 [Example 891, (5S)-7-(2-fluoro-3-pyridinyl)-3-((1S,4S)-2-oxa-5-azabicyclo[2.2.1]hept-5-yl)spiro[chromeno[2,3-c]pyridine-5,4′-[1,3]oxazol]-2′-amine]
